Data as given in ChEMBL document CHEMBL5143629, “Synthesis and evaluation of dual fatty acid amide hydrolase-monoacylglycerol lipase inhibition and antinociceptive activities of 4-methylsulfonylaniline-derived semicarbazones” (Bioorg Med Chem, 2022).

What was measured:
[1] = target: T1, Fatty-acid amide hydrolase 1 (Homo sapiens, UniProt O00519); experiment: Inhibition of human recombinant FAAH using arachidonoyl as substrate preincubated for 5 mins followed by substrate addition by fluorescence based assay
T1 sequence (O00519 whole entry): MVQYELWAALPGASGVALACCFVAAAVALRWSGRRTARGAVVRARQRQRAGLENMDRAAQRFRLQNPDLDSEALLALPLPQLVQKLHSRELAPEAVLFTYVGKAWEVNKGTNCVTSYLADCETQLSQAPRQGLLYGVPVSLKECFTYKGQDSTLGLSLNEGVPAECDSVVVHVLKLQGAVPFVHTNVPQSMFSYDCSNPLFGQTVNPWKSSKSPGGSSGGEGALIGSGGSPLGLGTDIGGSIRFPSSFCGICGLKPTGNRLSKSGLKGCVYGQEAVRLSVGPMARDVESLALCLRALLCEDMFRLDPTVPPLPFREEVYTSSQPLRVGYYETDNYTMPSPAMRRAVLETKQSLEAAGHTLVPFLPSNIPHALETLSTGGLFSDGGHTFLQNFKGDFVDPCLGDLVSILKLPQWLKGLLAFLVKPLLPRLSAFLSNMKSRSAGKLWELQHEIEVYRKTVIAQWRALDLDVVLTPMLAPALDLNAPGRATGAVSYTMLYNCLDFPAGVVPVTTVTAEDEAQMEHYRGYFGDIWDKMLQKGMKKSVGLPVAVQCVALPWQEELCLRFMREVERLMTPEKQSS

[2] = Permeability of the compound across blood brain barrier incubated for 18 hrs by UV plate reader based PAMPA assay; assay type: ADME, tissue-based; details: read-out: permeability
SH-SY5Y [3] = experiment: Cytotoxicity against human SH-SY5Y cells assessed as cell death upto 100 uM after 24 hrs by MTT assay; assay type: toxicity, cell-based
SH-SY5Y [4] = experiment: Neuroprotective activity against LPS-induced cell death in human SH-SY5Y cells assessed as cell viability at 100 uM after 24 hrs by MTT assay; assay type: functional; details: read-out: Activity
[5] = target: T1, Fatty-acid amide hydrolase 1; experiment: Inhibition of recombinant human FAAH incubated for 5 mins followed by substrate addition by cayman fluorescence based multimode microplate reader assay
Monoglyceride lipase = target: T2, Monoglyceride lipase (Homo sapiens, UniProt Q99685); experiment: Inhibition of human recombinant MAGL using 4-nitrophenyl acetate as substrate preincubated for 5 mins followed by substrate addition by fluorescence based colorimetry assay
T2 sequence (Q99685 whole entry): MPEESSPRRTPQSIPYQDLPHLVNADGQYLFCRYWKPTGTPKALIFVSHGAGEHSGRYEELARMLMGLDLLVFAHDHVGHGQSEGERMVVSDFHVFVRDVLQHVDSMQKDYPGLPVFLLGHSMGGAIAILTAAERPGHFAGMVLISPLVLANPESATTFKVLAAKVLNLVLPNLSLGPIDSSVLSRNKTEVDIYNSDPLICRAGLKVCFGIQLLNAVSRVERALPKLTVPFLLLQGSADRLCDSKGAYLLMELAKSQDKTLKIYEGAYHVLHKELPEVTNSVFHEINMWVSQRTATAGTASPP

With COc1cc(/C=N\NC(=O)Nc2ccc(S(C)(=O)=O)cc2)ccc1O as the compound, how does the IC50 [1] read?
The IC50 was > 10000 nM.

For C=CCN1C(=O)/C(=N/NC(=O)Nc2ccc(S(C)(=O)=O)cc2)c2cc(Cl)ccc21, which IC50 [1] is on record?
Its IC50 is 120 nM.

Which IC50 [1] does the source give for CS(=O)(=O)c1ccc(NC(=O)N/N=C\c2ccc(Cl)cc2)cc1 here?
The IC50 was 340 nM.

What about the Papp at 18 h [2] of the same compound?
Its Papp at 18 h is 11 ×10⁻⁶ cm/s.

And the Activity (SH-SY5Y [3])?
Its Activity is “Non-Toxic”.

What about the viability at 100 µM (SH-SY5Y [4]) of the same compound?
The viability at 100 µM was 75%.

With O=C(Oc1ccc([N+](=O)[O-])cc1)N1CCN(Cc2cccc(Oc3ccccc3)c2)CC1 as the compound, how does the IC50 [5] read?
Its IC50 is 2 nM.

With CS(=O)(=O)c1ccc(NC(=O)N/N=C2/C(=O)Nc3ccccc32)cc1 as the compound, how does the IC50 [1] read?
Its IC50 is 34 nM.

For C/C(=N/NC(=O)Nc1ccc(S(C)(=O)=O)cc1)c1ccc(O)cc1, which IC50 [1] is on record?
Its IC50 is 1460 nM.

For CC(=O)[C@H]1CC[C@H]2[C@@H]3CCC4=CC(=O)CC[C@]4(C)[C@H]3CC[C@]12C [PROGESTERONE], which Papp at 18 h [2] is on record?
The Papp at 18 h was 12.2 ×10⁻⁶ cm/s.

With C/C(=N/NC(=O)Nc1ccc(S(C)(=O)=O)cc1)c1ccc(Cl)cc1 as the compound, how does the IC50 [1] read?
The IC50 was 340 nM.

With CS(=O)(=O)c1ccc(NC(=O)N/N=C\c2ccc(Cl)cc2Cl)cc1 as the compound, how does the IC50 [1] read?
The IC50 was 19 nM.

For C/C(=N/NC(=O)Nc1ccc(S(C)(=O)=O)cc1)c1ccccc1, which IC50 [1] is on record?
Its IC50 is 330 nM.

Which IC50 [1] does the source give for C/C(=N/NC(=O)Nc1ccc(S(C)(=O)=O)cc1)c1ccc(Br)cc1Br here?
Its IC50 is 135 nM.

What about the IC50 (Monoglyceride lipase) of the same compound?
Its IC50 is > 10000 nM.

For CS(=O)(=O)c1ccc(NC(=O)N/N=C\c2ccc(O)cc2)cc1, which IC50 [1] is on record?
Its IC50 is 780 nM.

Which IC50 [1] does the source give for CS(=O)(=O)c1ccc(NC(=O)NN=C(c2ccccc2)c2ccccc2)cc1 here?
Its IC50 is 330 nM.

With C/C(=N/NC(=O)Nc1ccc(S(C)(=O)=O)cc1)c1ccc([N+](=O)[O-])cc1 as the compound, how does the IC50 [1] read?
Its IC50 is 960 nM.

For C=CCN1C(=O)/C(=N/NC(=O)Nc2ccc(S(C)(=O)=O)cc2)c2ccccc21, which IC50 [1] is on record?
The IC50 was 1280 nM.
